The values below come from patent US20260159474A1, “Aminoindane Compounds and Compositions and Methods of Their Therapeutic Use” (Solvonis Therapeutics Ireland Holdings Limited, priority 2021, published 2026).

Read-outs that look alike come from different tables or passages of the source.

Test in all cases: CYP450 inhibition, fluorescent probe substrate
What all share (assay type): in vitro ADME

In one data set the target is T1, CYP1A2 (Homo sapiens, UniProt P05177).
T1 construct: host or cells: recombinant microsomes
T1 sequence (P05177 1-516): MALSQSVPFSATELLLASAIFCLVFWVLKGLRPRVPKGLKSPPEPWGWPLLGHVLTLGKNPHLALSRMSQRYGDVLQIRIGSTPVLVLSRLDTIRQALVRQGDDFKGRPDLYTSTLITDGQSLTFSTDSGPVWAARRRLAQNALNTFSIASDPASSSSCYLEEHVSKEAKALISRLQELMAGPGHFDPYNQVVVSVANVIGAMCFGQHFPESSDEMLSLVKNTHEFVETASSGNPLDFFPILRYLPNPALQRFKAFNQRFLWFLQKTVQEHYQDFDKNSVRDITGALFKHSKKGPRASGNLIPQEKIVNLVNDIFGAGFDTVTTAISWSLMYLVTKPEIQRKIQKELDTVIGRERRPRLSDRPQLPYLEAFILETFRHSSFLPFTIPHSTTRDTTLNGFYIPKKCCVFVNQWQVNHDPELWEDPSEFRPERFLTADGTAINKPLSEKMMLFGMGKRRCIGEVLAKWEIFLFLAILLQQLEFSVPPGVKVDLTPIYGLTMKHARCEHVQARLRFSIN
How it is done: (§1) Methods: Recombinant human CYP450 isoenzymes were used to metabolize pro-fluorescent probe substrates to fluorescent products. IC50 values determined from the effect of test compounds on the metabolism of these probe substrates were then used to determine inhibitory potency against CYP450 isoforms. The chemical reagents included:
(§2) The test system was based on a three-step procedure with a “mix and read” format, where reaction and reading were performed at 37° C. The assays described herein measure in vitro inhibitory effects (pIC50) of compounds on the human P450 isoforms (1A2, 2B6, 2C8, 2C9, 2C19, 2D6, 3A4) expressed in recombinant microsomes. Pro-fluorescent probe substrates were metabolized to fluorescent products by the enzymes. Fluorescence was measured in kinetic mode (1 read/minutes for 10 minutes), and the fluorescence rate was calculated.
(§3) Inhibition of the fluorescent signal resulting from P450 activation indicated inhibitory activity and facilitated calculation of the compound pIC50. A quality check was included in each compound plate, wherein the signal window was monitored by performing Z′ calculations ([…] ) and the antagonist potency of internal standards was within the pIC50±2SD range. Concentration response curves (CRCs) of compounds were run on two different test occasions (n 2) by preparing serial dilutions from the same compound stock solution.
(§4) To prepare the compound plate, test compounds serial dilutions 1 to 3 were performed from a 10 mM stock solution in DMSO by Biomek FX to generate 10 point CRC with the highest concentrations in columns 3 and 13.
(§5) 100% DMSO was placed in columns 1 and 2 and used for assay low controls. CYP inhibitor (10 mM miconazole solution in DMSO) was placed in columns 23 and 24 and served as an assay high controls. 1 μL copy plates were then stamped into V-bottom drug plates at a concentration that is 200 fold the final assay concentration. The copy plates were diluted prior to the experiment with assay buffer to reach 4 times the final assay concentration (2% w/v DMSO).
(§6) A reference compound (e.g., miconazole) was included in each compound plate in row A, column 3 and 13. The reference compound was diluted and stamped together with test compounds. The final concentrations of the 10 point CRCs of test compounds in the assay plate were 5.00E-05; 1.67E-05; 5.56E-06; 1.85E-06; 6.17E-07; 2.06E-07; 6.86E-08; 2.29E-08; 7.62E-09 and 2.54E-09, respectively. All solutions were prepared immediately before the assay.
(§7) Microsomes were added to the buffer prior to the substrate addition. The solution was carefully mixed without vortexing. 30 μL/well of the mixture was then transferred to the assay plate (384-well black plate) using a 16-channel pipette. For each P450 isoformn, a separate plate was prepared and labeled with a barcode. For fluorescence measurement, 10 μL/well of the test compounds were transferred from the compound plate to the assay plate using Biomek FX and the appropriate protocol. The assay plate was then incubated at 37° C. for 10 minutes on a shaker to allow for the interaction between compounds and enzymes.
(§8) 10 μL/well of the cofactor was then added to the assay plate using the Multidrop before placing the assay plate in the plate reader EnVision to measure fluorescence. The overall final DMSO concentration for the assay was 0.5%. Plates were read every minute for 10 minutes, according to a P450 isoform specific protocol, as shown below.
(§9) Regarding data analysis, inhibition is expressed as a percentage. […] Curve fitting and pIC50 estimations are carried out using a four-parameter logistic model in Morphit.

A further data set deals with T2, CYP2C19 (Homo sapiens, UniProt P33261).
T2 construct: host or cells: recombinant microsomes
How it is done:
as §1, §2, §3, §4, §5, §6, §7, §8, §9

In a further data set the target is T3, CYP2C9 (Homo sapiens, UniProt P11712).
T3 construct: host or cells: recombinant microsomes
How it is done: as §1, §2, §3, §4, §5, §6, §7, §8, §9

The next data set addresses T4, CYP2D6 (Homo sapiens, UniProt P10635).
T4 construct: host or cells: recombinant microsomes
How it is done: as §1, §2, §3, §4, §5, §6, §7, §8, §9

The target in the next data set is T5, CYP3A4 (Homo sapiens, UniProt P08684).
T5 construct: purchased Life Technologies P2377; host or cells: Baculosomes
Here is the method: as §1, §2, §3, §4, §5, §6, §7, §8
The CYP3A4 and CYP2C8 were assayed using the Vivid CYP3A4 Baculosomes, CYP2C8 Baculosomes and Vivid DBOMF Substrate (Life Technologies, cat. P2377, PV6138 and P2974 respectively), while 2B6 is tested by Vivid CYP2B6 Baculosomes and Vivid BOMCC Substrate (Life Technologies, cat. P3028 and P2975). Test compounds were prepared as specified above. […]

The mark [1] stands for this setting: recombinant human isoenzyme, n=2.
Where [2] appears, read: recombinant human isoenzyme, n=2, read-out: Inhibition of CYP1A2, IC50.
Setting [3] is: recombinant human isoenzyme, n=2, read-out: Inhibition of CYP2C19, IC50.
Setting [4] is: recombinant human isoenzyme, n=2, read-out: Inhibition of CYP2C9, IC50.
Setting [5] is: recombinant human isoenzyme, n=2, read-out: Inhibition of CYP2D6, IC50.
[6] abbreviates: recombinant human isoenzyme, n=2, read-out: Inhibition of CYP3A4, IC50.

T5 sequence (P08684 whole entry): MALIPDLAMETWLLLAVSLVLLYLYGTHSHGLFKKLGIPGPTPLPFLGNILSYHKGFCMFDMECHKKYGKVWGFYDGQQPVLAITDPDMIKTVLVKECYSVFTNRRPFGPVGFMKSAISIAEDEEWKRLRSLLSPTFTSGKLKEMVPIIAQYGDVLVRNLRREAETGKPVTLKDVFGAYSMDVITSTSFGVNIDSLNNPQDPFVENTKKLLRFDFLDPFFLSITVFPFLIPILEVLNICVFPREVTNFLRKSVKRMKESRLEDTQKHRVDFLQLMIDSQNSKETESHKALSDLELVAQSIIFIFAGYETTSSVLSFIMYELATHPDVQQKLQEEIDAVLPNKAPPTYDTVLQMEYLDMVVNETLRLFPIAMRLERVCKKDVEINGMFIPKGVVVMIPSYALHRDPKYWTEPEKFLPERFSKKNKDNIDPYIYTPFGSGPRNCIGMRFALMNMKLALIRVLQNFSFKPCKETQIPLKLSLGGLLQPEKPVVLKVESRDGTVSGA
T3 sequence (P11712 whole entry): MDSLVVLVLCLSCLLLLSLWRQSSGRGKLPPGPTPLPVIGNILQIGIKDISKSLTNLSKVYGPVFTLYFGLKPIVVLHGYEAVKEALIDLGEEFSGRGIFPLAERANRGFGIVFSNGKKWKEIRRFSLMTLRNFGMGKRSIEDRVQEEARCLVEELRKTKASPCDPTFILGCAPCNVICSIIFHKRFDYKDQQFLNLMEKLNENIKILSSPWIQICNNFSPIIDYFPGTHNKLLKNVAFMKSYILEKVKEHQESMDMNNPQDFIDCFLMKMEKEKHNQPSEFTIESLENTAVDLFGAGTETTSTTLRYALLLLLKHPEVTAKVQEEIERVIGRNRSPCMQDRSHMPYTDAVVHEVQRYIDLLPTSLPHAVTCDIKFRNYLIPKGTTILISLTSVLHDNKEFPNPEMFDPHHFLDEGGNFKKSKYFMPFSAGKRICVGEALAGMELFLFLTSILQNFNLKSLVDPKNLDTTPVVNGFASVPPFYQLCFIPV
T2 sequence (P33261 whole entry): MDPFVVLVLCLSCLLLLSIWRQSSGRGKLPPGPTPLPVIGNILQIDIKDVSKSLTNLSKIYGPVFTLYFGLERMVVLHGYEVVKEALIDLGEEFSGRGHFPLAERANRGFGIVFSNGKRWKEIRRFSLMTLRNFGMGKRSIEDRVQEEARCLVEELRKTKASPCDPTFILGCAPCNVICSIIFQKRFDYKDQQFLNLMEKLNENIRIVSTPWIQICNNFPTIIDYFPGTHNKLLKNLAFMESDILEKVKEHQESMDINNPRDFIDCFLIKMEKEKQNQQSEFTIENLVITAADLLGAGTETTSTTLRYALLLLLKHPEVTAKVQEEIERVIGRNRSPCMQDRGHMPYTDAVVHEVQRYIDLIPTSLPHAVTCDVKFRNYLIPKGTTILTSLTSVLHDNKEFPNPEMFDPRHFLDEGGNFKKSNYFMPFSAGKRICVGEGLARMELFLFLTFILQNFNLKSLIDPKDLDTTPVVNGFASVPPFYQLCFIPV
T4 sequence (P10635 whole entry): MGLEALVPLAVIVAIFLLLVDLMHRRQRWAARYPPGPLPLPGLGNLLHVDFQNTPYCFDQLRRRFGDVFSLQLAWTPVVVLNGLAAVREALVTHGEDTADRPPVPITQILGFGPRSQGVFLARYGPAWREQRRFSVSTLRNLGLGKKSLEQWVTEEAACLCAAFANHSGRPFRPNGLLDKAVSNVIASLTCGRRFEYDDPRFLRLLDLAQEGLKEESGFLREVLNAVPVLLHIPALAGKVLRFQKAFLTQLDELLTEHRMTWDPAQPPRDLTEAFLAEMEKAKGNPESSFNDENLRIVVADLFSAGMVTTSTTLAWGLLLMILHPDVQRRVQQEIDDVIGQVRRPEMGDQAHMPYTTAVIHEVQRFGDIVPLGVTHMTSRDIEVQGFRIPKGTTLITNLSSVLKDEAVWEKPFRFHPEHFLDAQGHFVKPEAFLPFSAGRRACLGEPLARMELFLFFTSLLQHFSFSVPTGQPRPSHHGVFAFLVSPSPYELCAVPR

In general, IC50 refers to the concentration at which inhibition is half-maximal. Regarding `COC(=O)c1cc2c(cc1OC)CC(N)C2` (centres unmarked) [CMP-401], on CYP1A2 (setting [1]), the “Inhibition of CYP1A2, IC50” value is reported as “displayed inhibitory activity at CYP1A2”. Further, the IC50 at CYP1A2 (setting [2]) was 1.21 µM; at CYP2C19 (setting [3]) it was greater than 50 µM; at CYP2C9 (setting [4]), greater than 50 µM; at CYP2D6 (setting [5]) it was greater than 50 µM; at CYP3A4 (setting [6]), greater than 50 µM.
Consider `COC(=O)COc1ccc2c(c1)CC(N)C2` (centres unmarked) [CMP-402], for which the “Inhibition of CYP1A2, IC50” value at CYP1A2 (setting [1]) was “displayed inhibitory activity at CYP1A2”. The 50% inhibitory concentration (IC50) at CYP1A2 (setting [2]) is 1.07 µM; at CYP2C19 (setting [3]), greater than 50 µM; on CYP2C9 (setting [4]), greater than 50 µM; at CYP2D6 (setting [5]) it was greater than 50 µM; at CYP3A4 (setting [6]), greater than 50 µM.
For the compound `COC(=O)c1ccc2c(c1)CC(N)C2` (centres unmarked) [CMP-405, 2-aminoindane-5-methylcarboxylate], at CYP1A2 (setting [1]), the “Inhibition of CYP1A2, IC50” value was “displayed inhibitory activity at CYP1A2”. Further, the IC50 on CYP1A2 (setting [2]) was 0.61 µM; at CYP2C19 (setting [3]) it was greater than 50 µM; at CYP2C9 (setting [4]), greater than 50 µM; on CYP2D6 (setting [5]) it was 23 µM; at CYP3A4 (setting [6]), greater than 50 µM.
Turning to `CNC(C)Cc1ccc2c(c1)OCO2` (centres unmarked) [MDMA], the IC50 is greater than 50 µM on CYP1A2 (setting [2]); greater than 50 µM at CYP2C19 (setting [3]); greater than 50 µM on CYP2C9 (setting [4]); 1.6 µM at CYP2D6 (setting [5]); greater than 50 µM on CYP3A4 (setting [6]).
`COc1ccc2c(c1)CC(N)C2` (centres unmarked) [MEAI, 5-methoxy-2-aminoindane]: the IC50 at CYP1A2 was greater than 50 µM; at CYP2C19, greater than 50 µM; against CYP2C9, greater than 50 µM; against CYP2D6, 37 µM; against CYP3A4, greater than 50 µM.
Regarding `COc1cc2c(cc1C)CC(N)C2` (centres unmarked) [MMAI, 5-methoxy-6-methyl-2-aminoindane], the 50% inhibitory concentration (IC50) on CYP1A2 is 2.11 µM; at CYP2C19, greater than 50 µM; against CYP2C9, 35.7 µM; at CYP2D6, 33.6 µM; on CYP3A4 it was greater than 50 µM. For the same compound, the “Inhibition of CYP1A2, IC50” value at CYP1A2 (setting [1]) is listed as “displayed inhibitory activity at CYP1A2”. The “Inhibition of CYP2C9, IC50” value on CYP2C9 (setting [1]) is on record as “found to inhibit CYP2C9”.
